Measured values from patent publication US11787772B2, “Carboxylic diarythiazepineamines as mixed mu- and delta-opioid receptor agonists” (THE TRUSTEES OF COLUMBIA UNIVERSITY IN THE CITY OF NEW YORK, priority 2017, dated 2023).
Where a name gives a salt, the structure may show the parent alone. Read-outs that look alike come from different tables or passages of the source.

Key:
[1] = molecular target: T1, human mu opioid receptor (MOR) (Homo sapiens, UniProt P35372); experiment: BRET assay measuring G protein activation, agonist activity at human MOR; type: cell-based; settings: for MOR potency relative to analogs lacking substitution at position 2: dihalo-substituted core
T1 construct: expressed in transfected cells; host or cells: HEK-293T
Protocol: (§1) The diarylthiazepinamine carboxylic acids (9) were tested for agonist activity at the human mu opioid receptor (MOR) and delta opioid receptor (DOR) using bioluminescence resonance energy transfer (BRET) assays measuring G protein activation as previously described (Table 1) (Rives, M.-L. et al. 2012; Negri, A. et al. 2013).
Human MOR cDNA was transfected alongside GααB with RLuc8 inserted at position 91 (GααB—RLuc8), Gβ1 (β1), and Gγ2 fused to the full-length mVenus at its N terminus (mVenus-γ2) into HEK-293T cells (5×10^6 cells/plate) in 10-cm dishes using PEI (Polysciences Inc.; Warrington, PA) in a 1:1 ratio diluted in Opti-MEM (Life Technologies Corp.; Grand Island, NY) to assay for G protein activation as described previously (Rives, M.-L. et al. 2012; Negri, A. et al. 2013). Cells were maintained in Dulbecco's Modified Eagle Medium (high glucose #11965; Life Technologies) supplemented with 10% FBS (Premium Select, Atlanta Biologicals; Atlanta, GA) and 100 U/mL penicillin and 100 μg/mL streptomycin (#15140, Life Technologies). After 24 hours the media was changed, and the experiment was performed 24 hours later (48 hours after transfection).
(§2) Transfected cells were dissociated and re-suspended in phosphate-buffered saline (PBS). Approximately 200,000 cells/well were added to a black-framed, white well 96-well plate (#60050; Perkin Elmer; Waltham, MA). The microplate was centrifuged and the cells were re-suspended in PBS. Then 5 μM of the luciferase substrate coelenterazine H was added to each well for 5 minutes. Following coelenterazine H addition, ligands were added and the BRET signal was measured at 5 minutes on a PHERAstar FS plate reader. Quantification of the BRET signal required calculating the ratio of the light emitted by the energy acceptor, mVenus (510-540 nm), over the light emitted by the energy donor, RLuc8 (485 nm). […] Dose response curves were fit using a three-parameter logistics equation in GraphPad Prism 6.
The additional diarylthiazepinamine carboxylic acids (9i, 9j, 9k, and 91) were tested for agonist activity at the human mu opioid receptor (MOR) using bioluminescence resonance energy transfer (BRET) assays measuring G protein activation (Table 2) as previously described (Rives, M.-L. et al. 2012; Negri, A. et al. 2013; Example 2 of the present application).

[2] = molecular target: T2, human delta opioid receptor (DOR) (Homo sapiens, UniProt P41143); experiment: BRET assay measuring G protein activation, agonist activity at human DOR; type: cell-based
T2 construct: expressed in transfected cells
Protocol: as §1, §2

[3] = BRET G protein activation, HEK-293T cells, error ± SEM of 2 or more independent trials, read-out: Human MOR (EC50)
[4] = BRET G protein activation, error ± SEM of 2 or more independent trials, read-out: Human DOR (EC50)

T1 sequence (P35372 whole entry): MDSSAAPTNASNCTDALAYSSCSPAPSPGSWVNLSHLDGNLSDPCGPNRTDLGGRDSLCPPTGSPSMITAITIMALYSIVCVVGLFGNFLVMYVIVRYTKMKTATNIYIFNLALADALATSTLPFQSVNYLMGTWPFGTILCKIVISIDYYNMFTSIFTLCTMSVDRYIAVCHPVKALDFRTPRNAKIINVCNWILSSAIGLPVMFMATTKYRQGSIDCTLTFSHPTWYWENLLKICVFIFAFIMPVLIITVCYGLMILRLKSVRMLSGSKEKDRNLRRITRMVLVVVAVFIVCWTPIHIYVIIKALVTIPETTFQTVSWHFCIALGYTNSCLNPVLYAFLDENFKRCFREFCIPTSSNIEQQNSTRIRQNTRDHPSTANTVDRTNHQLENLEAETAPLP
T2 sequence (P41143 whole entry): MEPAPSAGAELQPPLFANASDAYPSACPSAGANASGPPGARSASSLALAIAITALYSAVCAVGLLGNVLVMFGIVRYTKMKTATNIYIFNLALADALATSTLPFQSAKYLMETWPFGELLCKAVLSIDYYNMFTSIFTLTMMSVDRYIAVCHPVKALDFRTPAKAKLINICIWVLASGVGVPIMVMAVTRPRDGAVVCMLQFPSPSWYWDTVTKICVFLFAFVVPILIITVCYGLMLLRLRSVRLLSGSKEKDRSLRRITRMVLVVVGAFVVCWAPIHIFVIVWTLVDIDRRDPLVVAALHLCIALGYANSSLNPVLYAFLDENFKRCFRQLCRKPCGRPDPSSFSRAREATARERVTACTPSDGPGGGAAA

For `CSc1ccc2c(c1)S(=O)(=O)N(C)c1ccccc1C2NCCCCCCC(=O)O` (centres unmarked) [Compound 9c, 7-((6-Methyl-3-(methylthio)-5,5-dioxido-6,1l-dihydrodibenzo [c,f][1,2]thiazepin-11-yl)amino)heptanoic acid], which EC50 [1, 3] is on record?
The EC50 was 0.0418 µM.

What about the Emax ([2]; BRET G protein activation) of the same compound?
Its Emax is 51%.

And the “Human DOR Emax” value ([2]; BRET G protein activation)?
Its value is 51%.

What about the “Human DOR agonist type (partial / full agonist)” value ([2]; BRET G protein activation) of the same compound?
Its value is “partial agonist”.

What about the EC50 [2, 4] of the same compound?
The EC50 was 2.06 µM.

What about the “DOR Emax relative to the control agonist DPDPE” value ([2]; FIG. 1) of the same compound?
Its value is “lesser Emax than the control agonist DPDPE”.

For `CCOC(=O)CCCCCCNC1c2ccccc2N(C)S(=O)(=O)c2ccccc21` (centres unmarked) [Compound 15c, reference compound], which EC50 [1] is on record?
The EC50 was 0.156 ± 0.0847 µM.

`CN1c2ccccc2C(NCCCCC(=O)O)c2cc(F)c(Br)cc2S1(=O)=O.Cl` (centres unmarked) [Compound 9l, 5-((3-bromo-2-fluoro-6-methyl-5,5-dioxido-6,11-dihydrodibenzo [c,f][1,2]thiazepin-11-yl)amino)pentanoic acid hydrochloride salt] was tested. Which EC50 [1] did it give?
The EC50 was 0.045 µM.

What about the “MOR potency relative to analogs lacking substitution at position 2” value [1] of the same compound?
The value was “equipotent or more potent”.

`CN1c2ccccc2C(NCCCCCCCCC(=O)O)c2ccc(I)cc2S1(=O)=O` (centres unmarked) [Compound 9f, 9-((3-Iodo-6-methyl-5,5-dioxido-6,11-dihydrodibenzo [c,f][1,2]thiazepin-11-yl)amino) nonanoic acid hydrochloride salt] was tested. Which EC50 [1] did it give?
Its EC50 is 0.022 ± 0.014 µM.

What about the EC50 [2] of the same compound?
The EC50 was 0.53 ± 0.34 µM.

With `CCOC(=O)CCCCCCNC1c2ccccc2N(C)S(=O)(=O)c2cc(SC)ccc21` (centres unmarked) [Compound 8c, Ethyl 7-((6-methyl-3-(methylthio)-5,5-dioxido-6,11-dihydrodibenzo[c,f][1,2]thiazepin-11-yl)amino)heptanoate] as the compound, how does the EC50 [1, 3] read?
The EC50 was 0.222 µM.

And the Emax ([2]; BRET G protein activation)?
Its Emax is 70%.

What about the “Human DOR agonist type (partial / full agonist)” value ([2]; BRET G protein activation) of the same compound?
Its value is “partial agonist”.

What about the EC50 [2, 4] of the same compound?
Its EC50 is 7 µM.

How did the EC50 [1] turn out when `CN1c2ccccc2C(NCCCCCCCCCCC(=O)O)c2ccc(I)cc2S1(=O)=O` (centres unmarked) [Compound 9h, 11-((3-Iodo-6-methyl-5,5-dioxido-6,11-dihydrodibenzo [c,f][1,2]thiazepin-11-yl)amino)undecanoic acid hydrochloride salt] was run?
The EC50 was 0.11 ± 0.029 µM.

What about the EC50 [2] of the same compound?
The EC50 was 0.7 ± 0.305 µM.

How did the EC50 [1] turn out when `Cc1ccc2c(c1)S(=O)(=O)N(C)c1ccccc1C2NCCCCCCC(=O)O` (centres unmarked) [3-Methyl-substituted Analog, reference compound] was run?
The EC50 was 0.89 µM.

And the EC50 [2]?
The EC50 was over 10 µM.

With `COCCCNC1c2ccccc2N(C)S(=O)(=O)c2ccc(Cl)cc21` (centres unmarked) [Compound 16a, reference compound] as the compound, how does the EC50 [1, 3] read?
The EC50 was 16.9 ± 5.22 µM.

With `CCOC(=O)CCCCCCNC1c2ccccc2N(C)S(=O)(=O)c2ccc(Cl)cc21` (centres unmarked) [Compound 15a, reference compound] as the compound, how does the EC50 [1] read?
Its EC50 is 4.15 ± 0.93 µM.

How did the EC50 [1] turn out when `CN1c2ccccc2C(NCCCCCCC(=O)O)c2cc(Cl)c(Cl)cc2S1(=O)=O.Cl` (centres unmarked) [Compound 9i, 7-((2,3-dichloro-6-methyl-5,5-dioxido-6,11-dihydrodibenzo [c,f][1,2]thiazepin-11-yl)amino)heptanoic acid hydrochloride salt] was run?
The EC50 was 0.172 µM.

And the “MOR potency relative to analogs lacking substitution at position 2” value [1]?
Its value is “equipotent or more potent”.

For `CN1c2ccccc2C(NCCCCCCCC(=O)O)c2ccc(Br)cc2S1(=O)=O` (centres unmarked) [Compound 9d, 8-((3-Bromo-6-methyl-5,5-dioxido-6,11-dihydrodibenzo [c,f][1,2]thiazepin-11-yl)amino) octanoic acid hydrochloride salt], which EC50 [1] is on record?
The EC50 was 0.056 ± 0.024 µM.

What about the EC50 [2] of the same compound?
The EC50 was 1.7 ± 0.04 µM.

What does the source list for `C#Cc1ccc2c(c1)S(=O)(=O)N(C)c1ccccc1C2NCCCCCCC(=O)O` (centres unmarked) [Compound 9a, 7-((3-Ethynyl-6-methyl-5,5-dioxido-6,11-dihydrodibenzo [c,f][1,2]thiazepin-11-yl)amino)heptanoic acid]?
EC50 [1, 3]: 0.0533 ± 0.018 µM; EC50 [2, 4]: 5.9 ± 0.3 µM

With `COCCCNC1c2ccccc2N(C)S(=O)(=O)c2ccccc21` (centres unmarked) [Compound 16c, reference compound] as the compound, how does the EC50 [1, 3] read?
Its EC50 is 2.01 ± 0.7 µM.

With `COCCCNC1c2ccccc2N(C)S(=O)(=O)c2cc(Cl)ccc21` (centres unmarked) [Compound 16b, reference compound] as the compound, how does the EC50 [1, 3] read?
The EC50 was 0.264 ± 0.0853 µM.
